Measurements reported in patent US20070099877A1, “N-aryl-thienopyrimidin-4-amines and analogs as activators of caspases and inducers of apoptosis and the use thereof” (Cytovia, Inc., priority 2005, published 2007).
Counter-ions that a name gives are not always drawn. Like-named read-outs stand apart in the source and are kept apart here.

How the values were obtained:
Format in all cases: cell-based
[1] = tested on: human breast cancer cell line T-47D; assay: Caspase cascade activation (DEVD-R110 fluorogenic substrate) in T-47D cells; conditions: Homo sapiens, T47D
In short: (§1)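 Cells were exposed to compound at 0.016 to 10 μM final for 24 h or 48 h at 37 °C. They were then lysed with 14 μM N-(Ac-DEVD)-N′-ethoxycarbonyl-R110 in lysolecithin/DTT/PIPES buffer pH 7.2 for 3 h at room temperature (ex 485/em 530 nm). EC50 came from a sigmoidal fit of net RFU relative to untreated control.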

[2] = tested on: human colon cancer cell line HT29; assay: Inhibition of cell proliferation (GI50) in HT29 cells; conditions: HT-29, Table III, 48 h
Description: (§2) Human breast cancer cell lines T-47D, MX-1 and MDAMB435, human colon cancer cell line HT29, and human lung cancer cell line H1299 were grown and harvested as in Example 75. An aliquot of […] of cells (4.4×10^4 cells/mL) was added to a well of a 96-well microtiter plate containing 5 μL of a 10% DMSO in RPMI-1640 media solution containing 10 nM to 100 μM of N-(2,5-dimethoxyphenyl)-2-methylthieno[3,2-d]pyrimidin-4-amine (1 nM to 10 μM final). An aliquot of 45 μL of cells was added to a well of a 96-well microtiter plate containing 5 μL of a 10% DMSO in RPMI-1640 media solution without compound as the control sample for maximal cell proliferation (Lmax). The samples were mixed by agitation and then incubated at 37° C. for 48 h in a 5% CO2-95% humidity incubator. After incubation, the samples were removed from the incubator and 25 μL of CellTiter-Glo™ reagent (Promega) was added. The samples were mixed by agitation and incubated at room temperature for 10-15 min. Plates were then read using a luminescent plate reader (Model SPECTRAfluor Plus, Tecan) to give Ltest values.
(§3) Baseline for GI50 (dose for 50% inhibition of cell proliferation) of initial cell numbers was determined by adding an aliquot of 45 μL of cells or 45 μL of media, respectively, to wells of a 96-well microtiter plate containing 5 μL of a 10% DMSO in RPMI-1640 media solution. The samples were mixed by agitation and then incubated at 37° C. for 0.5 h in a 5% CO2-95% humidity incubator. After incubation, the samples were removed from the incubator and 25 μL of CellTiter-Glo™ reagent (Promega) was added. The samples were mixed by agitation and incubated at 37° C. for 10-15 min at room temperature in a 5% CO2-95% humidity incubator. Fluorescence was read as above, (LStart) defining luminescence for initial cell number used as baseline in GI50 determinations.
(§4) GI50 (dose for 50% inhibition of cell proliferation) is the concentration where [(LTest−Lstart)/(LMax−Lstart)]=0.5.

[3] = tested on: human colon carcinoma cell line HCT116; assay: Caspase cascade activation in HCT116 cells; conditions: Homo sapiens, HCT-116, 48 h, read-out: Caspase activation Potency EC50 HCT116 (48 h)
In short: as §1

[4] = tested on: human breast cancer cell line MX-1; assay: Inhibition of cell proliferation (GI50) in MX-1 cells; conditions: MX1 cells
Description: as §2, §3, §4

[5] = tested on: human breast cancer cell line T-47D; assay: Inhibition of cell proliferation (GI50, CellTiter-Glo) in T-47D cells; conditions: T47D cells
Description: as §2, §3, §4

[6] = tested on: human lung cancer cell line H1299; assay: Caspase cascade activation in H1299 cells; conditions: NCI-H1299, 24 h, read-out: Caspase activation Potency EC50 H1299 (24 h)
Description: Human breast cancer cell line T-47D, human lung cancer cell line H1299, human hepatocellular carcinoma cell line SNU398, human colon carcinoma cell line HCT116 were grown according to media component mixtures designated by American Type Culture Collection+10% FCS (Invitrogen Corporation), in a 5% CO2-95% humidity incubator at 37° C. T-47D and H1299 cells were maintained at a cell density between 50 and 80% confluency at a cell density of 0.1 to 0.6×10^6 cells/mL. Cells were harvested at 600×g and resuspended at 0.65×10^6 cells/mL into appropriate media+10% FCS. An aliquot of 22.5 μL of cells was added to a well of a 384-well microtiter plate containing 2.5 μL of a 10% DMSO in RPMI-1640 media solution containing 0.16 to 100 μM of N-(2,5-dimethoxyphenyl)-2-methylthieno[3,2-d]pyrimidin-4-amine or other test compound (0.016 to 10 μM final). An aliquot of 22.5 μL of cells was added to a well of a 384-well microtiter plate containing 2.5 μL of a 10% DMSO in RPMI-1640 media solution without test compound as the control sample. The samples were mixed by agitation and then incubated at 37° C. for 24 h or 48 h in a 5% CO2-95% humidity incubator. After incubation, the samples were removed from the incubator and 25 μL of a solution containing 14 μM of N-(Ac-DEVD)-N′-ethoxycarbonyl-R110 (SEQ ID NO.:1) fluorogenic substrate (Cytovia, Inc.; WO99/18856), 20% sucrose (Sigma), 20 mM DTT (Sigma), 200 mM NaCl (Sigma), 40 mM Na PIPES buffer pH 7.2 (Sigma), and 500 μg/mL lysolecithin (Calbiochem) was added. The samples were mixed by agitation and incubated at room temperature. Using a fluorescent plate reader (Model SPECTRAfluor Plus, Tecan), an initial reading (T=0) was made approximately 1-2 min after addition of the substrate solution, employing excitation at 485 nm and emission at 530 nm, to determine the background fluorescence of the control sample. After the 3 h incubation, the samples were read for fluorescence as above (T=3 h).
The Relative Fluorescence Unit values (RFU) were used to calculate the sample readings as follows: RFU(T=3h)−Control RFU(T=O)=Net RFU(T=3h)
The activity of caspase cascade activation was determined by the ratio of the net RFU value for N-(2,5-dimethoxyphenyl)-2-methylthieno[3,2-d]pyrimidin-4-amine or other test compound to that of control samples. The EC50 (nM) was determined by a sigmoidal dose-response calculation (Prism 3.0, GraphPad Software Inc.).

[7] = tested on: human breast cancer cell line MDAMB435; assay: Inhibition of cell proliferation (GI50) in MDAMB435 cells
Description: as §2, §3, §4

[8] = tested on: human hepatocellular carcinoma cell line SNU398; assay: Caspase cascade activation in SNU398 cells; conditions: Homo sapiens, SNU-398, 48 h, read-out: Caspase activation Potency EC50 SNU398 (48 h)
In short: as §1

[9] = tested on: human lung cancer cell line H1299; assay: Inhibition of cell proliferation (GI50) in H1299 cells; conditions: NCI-H1299, Table III, 48 h
Description: as §2, §3, §4

[10] = tested on: human hepatocellular carcinoma cell line SNU398; assay: Inhibition of cell proliferation (GI50) in SNU398 cells; conditions: SNU-398, Table IV, read-out: GI50 in Multi-Cancer Cells SNU398
Description: as §2, §3, §4
(§5) Several compounds were tested in multi cancer cell lines, including human breast cancer cell lines T-47D, MX-1, SKBR3 and MDAMB435, human hepatocellular carcinoma cell line SNU398, human colon carcinoma cell line HCT116, human sarcoma cell line MES-SA and multi-drug resistant (MDR) human sarcoma cell line MES-SA/ADR, murine leukemia cell line P388 and multi-drug resistant (MDR) murine leukemia cell line P388ADR, and the data are summarized in Table IV.

[11] = tested on: human colon carcinoma cell line HCT116; assay: Inhibition of cell proliferation (GI50) in HCT116 cells; conditions: HCT-116, Table IV, read-out: GI50 in Multi-Cancer Cells HCT116
Description: as §2, §3, §4, §5

[12] = tested on: multi-drug resistant (MDR) human sarcoma cell line MES-SA/ADR; assay: Inhibition of cell proliferation (GI50) in MES-SA/ADR cells; conditions: Table IV, read-out: GI50 in Multi-Cancer Cells MES-SA/ADR
Description: as §2, §3, §4, §5

[13] = tested on: multi-drug resistant (MDR) murine leukemia cell line P388ADR; assay: Inhibition of cell proliferation (GI50) in P388/ADR cells; conditions: Mus musculus, Table IV, read-out: GI50 in Multi-Cancer Cells P388/ADR
Description: as §2, §3, §4, §5

[14] = tested on: human sarcoma cell line MES-SA; assay: Inhibition of cell proliferation (GI50) in MES-SA cells; conditions: Table IV, read-out: GI50 in Multi-Cancer Cells MES-SA
Description: as §2, §3, §4, §5

[15] = tested on: murine leukemia cell line P388; assay: Inhibition of cell proliferation (GI50) in P388 cells; conditions: Mus musculus, Table IV, read-out: GI50 in Multi-Cancer Cells P388
Description: as §2, §3, §4, §5

[16] = tested on: human breast cancer cell line SKBR3; assay: Inhibition of cell proliferation (GI50) in SKBR3 cells; conditions: SK-BR-3, Table IV, read-out: GI50 in Multi-Cancer Cells SKBR3
Description: as §2, §3, §4, §5

[17] = 24 h, T47D cells, 24 h, read-out: Caspase activation Potency EC50 T47D (24 h)
[18] = 48 h, T-47D cells, 48 h, read-out: Caspase activation Potency EC50 T-47D (48 h)
[19] = Table III, 48 h, read-out: GI50 in Cancer Cells MX1
[20] = Table III, 48 h, read-out: GI50 in Cancer Cells T47D
[21] = MDA-MB-435, Table III, 48 h, read-out: GI50 in Cancer Cells MDAMB435
[22] = Table IV, read-out: GI50 in Multi-Cancer Cells MX1
[23] = Table IV, read-out: GI50 in Multi-Cancer Cells T47D
[24] = MDA-MB-435, Table IV, read-out: GI50 in Multi-Cancer Cells MDAMB435

| EC50 [1, 17] | EC50 [1, 18] | GI50 [2] | EC50 [3] | GI50 [4, 19] | GI50 [5, 20] | EC50 [6] | GI50 [7, 21] | EC50 [8] | GI50 [9] | GI50 [10] | GI50 [11] | GI50 [12] | GI50 [4, 22] | GI50 [5, 23] | GI50 [13] | GI50 [7, 24] | GI50 [14] | GI50 [15] | GI50 [16] | SMILES |
| --- | --- | --- | --- | --- | --- | --- | --- | --- | --- | --- | --- | --- | --- | --- | --- | --- | --- | --- | --- | --- |
| 65 nM | 40 nM | 3550 nM | 2330 nM | 300 nM | 80 nM | 1550 nM | 295 nM | 557 nM | 1170 nM |  |  |  |  |  |  |  |  |  |  | COc1ccc(OC)c(Nc2nc(C)nc3ccsc23)c1 [Example 1, N-(2,5-Dimethoxyphenyl)-2-methylthieno[3,2-d]pyrimidin-4-amine] |
| 147 nM | 296 nM | > 10000 nM | > 10000 nM | 300 nM | 200 nM | > 10000 nM | > 10000 nM | > 10000 nM | > 10000 nM |  |  |  |  |  |  |  |  |  |  | COc1ccc(OC)c(Nc2ncnc3sccc23)c1 [Example 5, N-(2,5-Dimethoxyphenyl)thieno[2,3-d]pyrimidin-4-amine hydrochloride] |
| > 10000 nM | > 10000 nM | > 10000 nM | > 10000 nM | > 10000 nM | > 10000 nM | > 10000 nM | > 10000 nM | > 10000 nM | > 10000 nM |  |  |  |  |  |  |  |  |  |  | COc1ccc(OC)c(Nc2ncnc3scc(C)c23)c1 [Example 6, N-(2,5-Dimethoxyphenyl)-5-methylthieno[2,3-d]pyrimidin-4-amine hydrochloride] |
| 27 nM | 30 nM |  | 61 nM |  |  |  |  | 256 nM |  | 1070 nM | 6580 nM | 2000 nM | 100 nM | 40 nM | 1100 nM | 121 nM | 788 nM | 1050 nM |  | COc1cc(Nc2nc(C)nc3ccsc23)cc(OC)c1 [Example 54, N-(3,5-Dimethoxyphenyl)-2-methylthieno[3,2-d]pyrimidin-4-amine] |
| 355 nM | 287 nM |  | 291 nM |  |  |  |  | 138 nM |  | 299 nM | 400 nM | 767 nM | 791 nM | 398 nM | 199 nM | 61 nM | 836 nM | 280 nM | 600 nM | COc1cc(Nc2ncnc3ccsc23)cc(-n2cnnn2)c1 [Example 61, N-(3-Methoxy-5-(1H-tetrazol-1-yl)phenyl)thieno[3,2-d]pyrimidin-4-amine] |
|  | 191 nM |  | 323 nM |  |  |  |  | 251 nM |  | 276 nM | 300 nM | 520 nM | 9850 nM | 133 nM | 249 nM | 41 nM | 600 nM | 381 nM | 100 nM | COc1cc(Nc2ncnc3ccsc23)cc(N(C)C)c1 [Example 69, N-(3-Dimethylamino-5-methoxyphenyl)thieno[3,2-d]pyrimidin-4-amine] |
|  | 209 nM |  | 144 nM |  |  |  |  | 262 nM |  | 305 nM | 300 nM | 796 nM | 1670 nM | 208 nM | 157 nM | 92 nM | 385 nM | 218 nM | 200 nM | COc1cc(N=[N+]=[N-])cc(Nc2ncnc3ccsc23)c1 [Example 71, N-(3-Azido-5-methoxyphenyl)thieno[3,2-d]pyrimidin-4-amine] |
